Results from patent publication US12383533B2 (Frost Biologic, Inc., priority 2014, dated 2025).

Tests used:
A2780 cells = test: Cell Viability Assay (ATPlite 1step), A2780; type: cell-based; settings: Homo sapiens, 72 hours; for percent inhibition of cell viability at 4 µM: A2780, 4 uM compound, read-out: Cell Viability % inhibition A2780 (4 uM Cpd); for percent inhibition of cell viability at 20 µM: A2780, 20 uM compound, read-out: Cell Viability % inhibition A2780 (20 uM Cpd)
Method: (§1) Cell Viability Assay Protocol
(§2) Cells were trypsinized, counted, and re-seeded into a 384-well tissue culture plate at 1000 cells per well in […] media. Cells were incubated at 37° C. in an atmosphere of 5% CO2 for 24 hours. Experimental compounds, initially dissolved in DMSO and diluted further in media were added to the wells and incubated for 72 hours. Cell viability was measured using the ATPlite 1step Luminescence Detection Assay system (Perkin Elmer) as described in the Assay kit instructions.
(§3) Cell Culture Lines and Media: (1) A2780 cells were cultured in RPMI media with 10% FBS and 1% antibiotics. Cells were typically split every 3-5 days at a 1:10 dilution; (2) PC3 cells were cultured in RPMI media with 10% FBS and 1% antibiotics. Cells were typically split every 3-5 days at a 1:4 dilution; (3) MCF-7 cells were grown in K-12F media with 10% FBS and 1% antibiotics. Cells were typically split every 3-5 days at a 1:10 dilution.

PC3 cells = test: Cell Viability Assay (ATPlite 1step), PC3; type: cell-based; settings: Homo sapiens, PC-3, 72 hours; for percent inhibition of cell viability at 4 µM: PC3, 4 uM compound, read-out: Cell Viability % inhibition PC3 (4 uM Cpd); for percent inhibition of cell viability at 20 µM: PC3, 20 uM compound, read-out: Cell Viability % inhibition PC3 (20 uM Cpd)
Method: as §1, §2, §3

Compound	percent inhibition of cell viability at 4 µM (A2780 cells) [%]	percent inhibition of cell viability at 20 µM (A2780 cells) [%]	percent inhibition of cell viability at 4 µM (PC3 cells) [%]	percent inhibition of cell viability at 20 µM (PC3 cells) [%]
O=C(Nc1ccc(-c2ccc(Cl)cc2)cn1)c1cncnc1 [Compound 2, N-[5-(4-chlorophenyl)pyridin-2-yl]pyrimidine-5-carboxamide]	19.5	65.2	4.9	17.4
O=C(Nc1ccc(-c2ccccc2Cl)cn1)c1cncnc1 [Compound 4, N-[5-(2-chlorophenyl)pyridin-2-yl]pyrimidine-5-carboxamide]	79.7	87.5	36	44.2
O=C(Nc1ccc(C2CC2)cn1)c1cncnc1 [Compound 6, N-(5-cyclopropylpyridin-2-yl)pyrimidine-5-carboxamide]	75.5	76.4	27	29.9
O=C(Nc1ccc(-c2ccsc2)cn1)c1cncnc1 [Compound 7, N-[5-(thiophen-3-yl)pyridin-2-yl]pyrimidine-5-carboxamide]	81.3	90.9	44.1	41.8
COc1ccc(Cl)cc1-c1ccc(NC(=O)c2cncnc2)nc1 [Compound 21, N-[5-(5-chloro-2-methoxyphenyl)pyridin-2-yl]pyrimidine-5-carboxamide]	70.4	62.4	22.8	15.3
COc1ccc(-c2ccc(NC(=O)c3cncnc3)nc2)cc1Cl [Compound 22, N-[5-(3-chloro-4-methoxyphenyl)pyridin-2-yl]pyrimidine-5-carboxamide]	69	67.9	20.7	11.5
O=C(Nc1ccc(-c2cccc(C3CC3)c2)cn1)c1cccnc1 [Compound 24, N-[5-(3-cyclopropylphenyl)pyridin-2-yl]pyridine-3-carboxamide]	73.4	72.2	53.1	67.5
Cc1ccc(C(=O)Nc2ccc(-c3cccc(C4CC4)c3)cn2)cn1 [Compound 25, N-[5-(3-cyclopropylphenyl)pyridin-2-yl]-6-methylpyridine-3-carboxamide]	70.6	81.1	50.3	63.4
O=C(Nc1ccc(-c2cccc(OC3CC3)c2)cn1)c1cncnc1 [Compound 26, N-{5-[3-(cyclopropyloxy)phenyl]pyridin-2-yl}pyrimidine-5-carboxamide]	76	79.9	59.3	67.5
O=C(Nc1ccc(-c2cccc(OC3CC3)c2)cn1)c1cccnc1 [Compound 28, N-{5-[3-(cyclopropyloxy)phenyl]pyridin-2-yl}pyridine-3-carboxamide]	77	74.2	58.9	65.6
Cc1ccc(C(=O)Nc2ccc(-c3cccc(OC4CC4)c3)cn2)cn1 [Compound 29, N-{5-[3-(cyclopropyloxy)phenyl]pyridin-2-yl}-6-methylpyridine-3-carboxamide]	74.4	83.1	60.5	69.5
O=C(Nc1ccc(-c2cccc(NC3CC3)c2)cn1)c1cncnc1 [Compound 30, N-{5-[3-(cyclopropylamino)phenyl]pyridin-2-yl}pyrimidine-5-carboxamide]	77.4	78.7	63.4	71.9
O=C(Nc1ccc(-c2cccc(NC3CC3)c2)cn1)c1cccnc1 [Compound 32, N-{5-[3-(cyclopropylamino)phenyl]pyridin-2-yl}pyridine-3-carboxamide]	71.9	77	57.3	57.6
Cc1ccc(C(=O)Nc2ccc(-c3cccc(NC4CC4)c3)cn2)cn1 [Compound 33, N-{5-[3-(cyclopropylamino)phenyl]pyridin-2-yl}-6-methylpyridine-3-carboxamide]	69.5	74.8	56.1	54.9
CN1CCN(c2cccc(-c3ccc(NC(=O)c4cncnc4)nc3)c2)CC1 [Compound 34, N-{5-[3-(4-methylpiperazin-1-yl)phenyl]pyridin-2-yl}pyrimidine-5-carboxamide]	51.6	49.4	19.8	30.3
Cc1ncc(C(=O)Nc2ccc(-c3cccc(N4CCN(C)CC4)c3)cn2)cn1 [Compound 35, N-{5-[3-(4-methylpiperazin-1-yl)phenyl]pyridin-2-yl}-2-methylpyrimidine-5-carboxamide]	54.6	75.9	39.6	58.8
CN1CCN(c2cccc(-c3ccc(NC(=O)c4cccnc4)nc3)c2)CC1 [Compound 36, N-{5-[3-(4-methylpiperazin-1-yl)phenyl]pyridin-2-yl}pyridine-3-carboxamide]	51.3	55.5	24.3	42.5
Cc1ccc(C(=O)Nc2ccc(-c3cccc(N4CCN(C)CC4)c3)cn2)cn1 [Compound 37, N-{5-[3-(4-methylpiperazin-1-yl)phenyl]pyridin-2-yl}-6-methylpyridine-3-carboxamide]	59.2	70.8	35.4	61
Cc1ncc(C(=O)Nc2ccc(-c3cccc(OCCN4CCN(C)CC4)c3)cn2)cn1 [Compound 38, N-{-5-[3-(2-(4-methylpiperazin-1-yl)ethoxy)phenyl]pyridin-2-yl}-2-methylpyrimidine-5-carboxamide]	51.7	68.7	39.9	61.2
O=C(Nc1ccc(-c2cccc(C3CC3)c2)cn1)c1cnccc1F [Compound 39, N-[5-(3-cyclopropylphenyl)pyridin-2-yl]-4-fluoropyridine-3-carbox-amide]	55.6	58.7	19.2	28.7
O=C(Nc1ccc(-c2cccc(-c3ccccc3)c2)cn1)c1cncnc1 [Compound 40, N-[5-(biphenyl-3-yl)pyridin-2-yl]pyrimidine-5-carboxamide]	61	72	48.3	52.5
O=C(Nc1ccc(-c2cccc(C3COC3)c2)cn1)c1cncnc1 [Compound 41, N-{5-[3-(oxetan-3-yl)phenyl]pyridin-2-yl}pyrimidine-5-carboxamide]	74.7	88.9	74.5	80.9
Cc1ncc(C(=O)Nc2ccc(-c3cccc(C4COC4)c3)cn2)cn1 [Compound 42, 2-methyl-N-{5-[3-(oxetan-3-yl)phenyl]pyridin-2-yl}pyrimidine-5-carboxamide]	85	85.2	80.3	84.5
O=C(Nc1ccc(-c2cccc(C3COC3)c2)cn1)c1cccnc1 [Compound 43, N-{5-[3-(oxetan-3-yl)phenyl]pyridin-2-yl}pyridine-3-carboxamide]	82.6	86.7	75.1	84.5
O=C(Nc1ccc(-c2cccc(C3CCC3)c2)cn1)c1cncnc1 [Compound 45, N-[5-(3-cyclobutylphenyl)pyridin-2-yl]pyrimidine-5-carboxamide]	87.6	86.4	80.8	83.3
CC(C)(C)c1cccc(-c2ccc(NC(=O)c3cncnc3)nc2)c1 [Compound 46, N-[5-(3-tert-butylphenyl)pyridin-2-yl]pyrimidine-5-carboxamide]	71.1	71.8	68.5	67.6
